Measured values: patent publication US20120213837A1, “COMPOSITIONS AND METHODS FOR BIOACTIVE COATINGS TO IMPROVE ALLOGRAFT INCORPORATION” (priority 2009, published 2012)
Entries after “also recorded” stand apart in the source; their conditions may differ.

Legend:
[1] = system: allograft-host bone interface; experiment: H&E and Masson's trichrome staining of tibial defects; format: in vivo, Sprague Dawley rats; conditions: 6 weeks healing, vs U and C groups
Experimental: (§1) All animal surgeries were performed according to an approved protocol from the UVA Animal Care and Use Committee. Briefly, adult male Sprague Dawley rats (˜400 g) were randomly assigned to three different experimental groups: uncoated allograft (U), coated 1:12 PLAGA (C), and coated 1:12 PLAGA loaded with 1:200 FTY720 (C/L). Animals were anesthetized with isoflurane gas. Following anesthetization, the dorsal skin was sterilized with betadine and 70% ethanol. A small incision was made longitudinally over the midshaft of the tibia. Subperiosteal dissection was performed once the subcutaneous tissue was dissected over the anterior aspect of the tibia. […]
For CD45 staining to visualize leukocyte recruitment, four 7 μm-thick histological sections per sample (cryo-embedded) were blocked 3×10 minutes in PBS/saponin/BSA and immunolabeled with CD45 (BD Pharmingen) diluted 1:50 in PBS/saponin/BSA. […] To quantify changes in vascular remodeling (particularly recruitment of mural cells) in response to FTY720, SMA-positive cells that formed an obvious lumen were quantified in each tissue section. Total tissue area was measured in ImageJ, and the FTY720-mediated response was represented as a fraction of SMA-positive lumens per total tissue area. […]

arterioles = conditions: sustained release from 50:50 PLAGA films, 1:200 wt/wt; cited from earlier work
[2] = in vivo; cited from earlier work
CD45+ leukocytes = experiment: CD45 immunostaining of tibial defect sections; format: in vivo, Sprague Dawley rats; conditions: 6 weeks, qualitative images
Experimental: as §1
(§2) For CD45 staining to visualize leukocyte recruitment, four 7 μm-thick histological sections per sample (cryo-embedded) were blocked 3×10 minutes in PBS/saponin/BSA and immunolabeled with CD45 (BD Pharmingen) diluted 1:50 in PBS/saponin/BSA. […] To quantify changes in vascular remodeling (particularly recruitment of mural cells) in response to FTY720, SMA-positive cells that formed an obvious lumen were quantified in each tissue section. Total tissue area was measured in ImageJ, and the FTY720-mediated response was represented as a fraction of SMA-positive lumens per total tissue area.

[3] = system: SMA-positive lumens (mural cell recruitment); experiment: Smooth muscle alpha-actin (SMA) immunostaining of tibial defect sections; format: in vivo, Sprague Dawley rats; conditions: 6 weeks, interface/allograft regions, vs U and C groups
Experimental: as §1, §2

[4] = system: critical size calvarial bone defects; conditions: 3D PLAGA scaffolds delivering FTY720; cited from earlier work
[5] = system: host-bone-allograft integrated structure (excised tibias); experiment: Post-operative mechanical properties, compression in Instron 4511; format: in vivo, Sprague Dawley rats; conditions: 6 weeks post-op, compression 1 mm/min, vs U and C groups
Experimental: All animal surgeries were performed according to an approved protocol from the UVA Animal Care and Use Committee. Briefly, adult male Sprague Dawley rats (˜400 g) were randomly assigned to three different experimental groups: uncoated allograft (U), coated 1:12 PLAGA (C), and coated 1:12 PLAGA loaded with 1:200 FTY720 (C/L). Animals were anesthetized with isoflurane gas. Following anesthetization, the dorsal skin was sterilized with betadine and 70% ethanol. A small incision was made longitudinally over the midshaft of the tibia. Subperiosteal dissection was performed once the subcutaneous tissue was dissected over the anterior aspect of the tibia. A Dremel rotary tool with a Diamond Wheel accessory was used to make an 8 mm defect slightly distal to the tibial tubercle and the 8 mm allograft segment was inserted into the defect. A stab incision was made just medial to the patellar tendon and a 19.5 gauge needle was inserted into the intramedullary canal, through the allograft, into the distal intramedullary canal to resistance, and tamped flush to the bone. […]
A leading cause of allograft failure or post-operative complications includes mechanical instability at the bone-allograft interface. […] To determine the elastic modulus, the slope was calculated between the values of 0.07 to 0.08 strain, since this was the interval in which the elastic region existed in all the graphs.

[6] = In vitro release of 33P-labelled S1P from PLAGA-coated allografts; encapsulation efficiency; format: physicochemical
Experimental: Allograft samples were coated similarly to the above protocol with radio-labeled sphingosine-1-phosphate (S1P, Cayman Chemical, Ann Arbor Mich.) to measure drug release over a 14-day period. Specifically, 2.92 mg of S1P was resolubilized in MeCl to a final concentration of 2 mg/mL by frequent heating and vortexing. Using a conversion factor of 2.2×10^6 cpm/μCi and 1 μCi/μL, 6.8 μL of Phosphorus-33 (^33P) (Perkin Elmer, Inc., Waltham, Mass.) was added to the S1P solution. Next, 583 mg of 50:50 PLAGA was added to the S1P-^33P solution to achieve a 1:12 (wt./vol.) polymer-solvent ratio. The final solution had 2.92 mg of S1P, 6.8 μL of ^33P, and 583 mg of 50:50 PLAGA mixed in 7 mL of MeCl. The coated allografts were then placed into a glass scintillation vial containing 50 μL of simulated body fluid (SBF) with 4% fatty acid free (FAF) BSA. Following 24 hours incubation, the allografts were removed from the vials and the remaining 4% FAF-BSA SBF was mixed with 5 mL of EcoScintA biodegradable scintillation solution for quantifying drug release using the Beckman Coulter liquid scintillation counter. Allografts were then placed into a new glass vial containing fresh 4% FAF-BSA SBF. This cycle was repeated for a 14-day period to achieve cumulative measurements. Encapsulation efficiency (maximum amount of S1P that can be released) was quantified by placing allografts in MeCl to completely dissolve the drug-containing polymer solution.
To determine total amount of drug loaded into allograft implants and the kinetics of drug release, in vitro experiments were conducted utilizing allografts loaded with S1P-^33P (FIG. 3). Complete degradation of PLAGA occurs between 6-8 weeks. However, substantial S1P release was expected to occur earlier, given the bulk degradation profile of PLAGA. We found approximately 0.64 mg of the original 1 mg of S1P was actually loaded within the polymer-coated allograft (64% loading efficiency). After 14 days incubation, 0.57 mg of S1P was detected in the simulated body fluid (SBF). […]

[7] = in the absence of a carrier protein; cited from earlier work
[8] = system: smooth muscle proliferation and migration; conditions: daily injections; cited from earlier work

## CCCCCCCCc1ccc(CCC(N)(CO)CO)cc1 [FTY720, Fingolimod]
[1]
  allograft-host bone integration, histology: superior collagen alignment, osseous tissue generation along the outer edge of the allograft tissue, better preservation of inner cancellous porous regions, and preservation of allograft-tibial alignment
arterioles
  microvascular remodeling (arterioles): promotes formation of new arterioles and structural enlargement of existing arterioles
[2]
  half-life: approximately 7 days
CD45+ leukocytes
  number of CD45+ leukocytes within allograft-host bone interface: reductions in the number of leukocytes; also recorded: significant reduction
[3]
  number of blood vessels stained with smooth muscle alpha-actin: significantly increased; also recorded: enhanced the number of smooth-muscle-invested vessels
[4]
  osseous tissue ingrowth and proportion of mature smooth muscle cell-invested microvessels: significantly increases
[5]
  elastic modulus: statistically significant increases
  ultimate compressive strength: statistically significant increases

## CCCCCCCCCCCCC/C=C/[C@@H](O)[C@@H](N)COP(=O)(O)O [S1P, sphingosine-1-phosphate]
[6]; 50:50 PLAGA 1:12 coated allograft
  loading efficiency: 64%
[6]; 50:50 PLAGA coated allograft, SBF
  release profile: initial burst release of drug was observed during the first five days
[6]; of the original 1 mg of S1P, 50:50 PLAGA 1:12 coating
  amount of S1P loaded within the polymer-coated allograft: approximately 0.64 mg
[2]
  half-life in blood: less than 1 hour
[7]
  solubility in aqueous solutions: insoluble

## CCCCCCCCc1cccc(NC(=O)[C@H](N)CCP(=O)(O)O)c1 [VPC44116]
[8]
  smooth muscle proliferation and migration: significantly decreased
